Measured values as given in ChEMBL document CHEMBL4321806 (J Med Chem, 2019).

Experiments:
[1] = Cytotoxicity against mouse L929 cells assessed as reduction in cell viability
NIH3T3 = assay: Cytotoxicity against mouse 3T3 cells assessed as reduction in cell viability; format: cell-based
HFF-1 = assay: Cytotoxicity against human HFF1 cells assessed as reduction in cell viability; format: cell-based

Row | Compound | IC50 [1] [µM] | IC50 (NIH3T3) [µM] | IC50 (HFF-1) [µM]
1 | O=c1cc(-c2ccc(OCCOCCn3cc(CN(Cc4ccccc4)Cc4cn(CCOCCOc5ccc(-c6cc(=O)c7ccccc7o6)cc5)nn4)nn3)cc2)oc2ccccc12 | > 100 | – | –
2 | COC(=O)c1cccc(COc2c(-c3ccc(OCCOCCOCCn4cc(CN(Cc5ccccc5)Cc5cn(CCOCCOCCOc6ccc(-c7oc8ccccc8c(=O)c7OCc7cccc(C(=O)OC)c7)cc6)nn5)nn4)cc3)oc3ccccc3c2=O)c1 | > 100 | > 100 | > 100
3 | Cc1ccc2oc(-c3ccc(OCCOCCOCCn4cc(COCCOc5ccc6c(=O)cc(-c7ccccc7)oc6c5)nn4)cc3)cc(=O)c2c1 | > 100 | – | –
4 | O=c1cc(-c2ccccc2)oc2cc(OCCOCc3cn(CCOCCOc4ccc(-c5cc(=O)c6cc(F)ccc6o5)cc4)nn3)ccc12 | > 100 | – | –
5 | COC(=O)c1cccc(COc2c(-c3ccc(OCCOCCn4cc(CCCOc5ccc6c(=O)cc(-c7ccccc7)oc6c5)nn4)cc3)oc3ccccc3c2=O)c1 | > 100 | – | –
6 | COC(=O)c1cccc(COc2c(-c3ccc(OCCOCCn4cc(CN(Cc5cn(CCOCCOc6ccc(-c7oc8ccccc8c(=O)c7OCc7cccc(C(=O)OC)c7)cc6)nn5)c5ccccc5)nn4)cc3)oc3ccccc3c2=O)c1 | > 100 | > 100 | > 100
7 | O=c1cc(-c2ccccc2)oc2cc(OCCOCc3cn(CCOCCOc4ccc(-c5oc6ccccc6c(=O)c5OCc5ccccc5)cc4)nn3)ccc12 | > 100 | – | –
8 | O=c1cc(-c2ccc(OCCOCCOCCn3cc(CCCCOc4ccc5c(=O)cc(-c6ccccc6)oc5c4)nn3)cc2)oc2ccccc12 | > 50 | – | –
9 | COC(=O)c1cccc(COc2c(-c3ccc(OCCOCCOCCn4cc(CCCOc5ccc(-c6cc(=O)c7ccc(F)cc7o6)cc5)nn4)cc3)oc3ccccc3c2=O)c1 | > 100 | – | –
10 | COC(=O)c1cccc(COc2c(-c3ccc(OCCOCCn4cc(CN5CCCN(Cc6cn(CCOCCOc7ccc(-c8oc9ccccc9c(=O)c8OCc8cccc(C(=O)OC)c8)cc7)nn6)CC5)nn4)cc3)oc3ccccc3c2=O)c1 | > 100 | – | –
11 | O=c1cc(-c2ccccc2)oc2cc(OCCOCCOCCn3cc(COCCOc4ccc5c(=O)cc(-c6ccccc6)oc5c4)nn3)ccc12 | 12.1 | – | –
12 | O=c1cc(-c2ccccc2)oc2cc(OCCCCc3cn(CCOCCOc4ccc(-c5oc6ccccc6c(=O)c5OCc5ccccc5)cc4)nn3)ccc12 | > 100 | – | –
13 | O=c1cc(-c2ccc(OCCOCCOCCn3cc(COCCOc4ccc5c(=O)cc(-c6ccccc6)oc5c4)nn3)cc2)oc2ccccc12 | 22 | – | –
14 | COC(=O)c1cccc(COc2c(-c3ccc(OCCOCCn4cc(-c5ccc(-c6cn(CCOCCOc7ccc(-c8oc9ccccc9c(=O)c8OCc8cccc(C(=O)OC)c8)cc7)nn6)cc5)nn4)cc3)oc3ccccc3c2=O)c1 | > 100 | – | –
15 | O=c1cc(-c2ccccc2)oc2cc(OCCCCc3cn(CCOCCOCCOc4ccc(-c5cc(=O)c6cc(F)ccc6o5)cc4)nn3)ccc12 | > 100 | – | –
16 | O=c1cc(-c2ccccc2)oc2cc(OCCOCCn3cc(COCCOc4ccc5c(=O)cc(-c6ccccc6)oc5c4)nn3)ccc12 | > 100 | – | –
17 | O=c1cc(-c2ccccc2)oc2cc(OCCCCc3cn(CCOCCOCCOc4ccc5c(=O)cc(-c6ccccc6)oc5c4)nn3)ccc12 | > 100 | – | –
18 | O=c1cc(-c2ccccc2)oc2cc(OCCCc3cn(CCOCCOCCOc4ccc5c(=O)cc(-c6ccccc6)oc5c4)nn3)ccc12 | > 50 | – | –
19 | COC(=O)c1cccc(COc2c(-c3ccc(OCCOCCOCCn4cc(COCCOc5ccc6c(=O)cc(-c7ccccc7)oc6c5)nn4)cc3)oc3ccccc3c2=O)c1 | > 100 | – | –
20 | O=c1cc(-c2ccc(OCCCc3cn(CCOCCOCCOc4ccc5c(=O)cc(-c6ccccc6)oc5c4)nn3)cc2)oc2cc(F)ccc12 | > 100 | – | –

Row | Compound | IC50 [1] [µM] | IC50 (NIH3T3) [µM] | IC50 (HFF-1) [µM]
21 | Cc1ccc2oc(-c3ccc(OCCCCc4cn(CCOCCOc5ccc(-c6oc7ccccc7c(=O)c6OCc6ccccc6)cc5)nn4)cc3)cc(=O)c2c1 | > 100 | – | –
22 | Cc1ccc2oc(-c3ccc(OCCCCc4cn(CCOCCOCCOc5ccc(-c6cc(=O)c7ccccc7o6)cc5)nn4)cc3)cc(=O)c2c1 | > 50 | – | –
23 | Cc1ccc2oc(-c3ccc(OCCOCCOCCn4cc(CN(Cc5ccccc5)Cc5cn(CCOCCOCCOc6ccc(-c7cc(=O)c8cc(C)ccc8o7)cc6)nn5)nn4)cc3)cc(=O)c2c1 | > 100 | – | –
24 | COC(=O)c1cccc(COc2c(-c3ccc(OCCOCCn4cc(CN(C)CCN(C)Cc5cn(CCOCCOc6ccc(-c7oc8ccccc8c(=O)c7OCc7cccc(C(=O)OC)c7)cc6)nn5)nn4)cc3)oc3ccccc3c2=O)c1 | > 100 | – | –
25 | Cc1ccc2oc(-c3ccc(OCCCCc4cn(CCOc5ccc6c(=O)cc(-c7ccccc7)oc6c5)nn4)cc3)cc(=O)c2c1 | 9.2 | – | –
26 | Cc1ccc2oc(-c3ccc(OCCCCc4cn(CCN(CCOc5ccc6c(=O)cc(-c7ccccc7)oc6c5)Cc5ccccc5)nn4)cc3)cc(=O)c2c1 | > 100 | – | –
27 | Cc1ccc2oc(-c3ccc(OCCCCc4cn(CCOCCOCCOc5ccc6c(=O)cc(-c7ccccc7)oc6c5)nn4)cc3)cc(=O)c2c1 | > 100 | – | –
28 | COC(=O)c1cccc(COc2c(-c3ccc(OCCOCCn4cc(CN5CCN(Cc6cn(CCOCCOc7ccc(-c8oc9ccccc9c(=O)c8OCc8cccc(C(=O)OC)c8)cc7)nn6)CC5)nn4)cc3)oc3ccccc3c2=O)c1 | > 100 | – | –
29 | O=c1cc(-c2ccccc2)oc2cc(OCCN(Cc3ccccc3)Cc3cn(CCOCCOCCOc4ccc(-c5oc6ccccc6c(=O)c5OCc5ccccc5)cc4)nn3)ccc12 | > 100 | – | –
30 | O=c1cc(-c2ccccc2)oc2cc(OCCOCCOCCn3cc(CN(CCOc4ccc5c(=O)cc(-c6ccccc6)oc5c4)Cc4ccccc4)nn3)ccc12 | > 100 | – | –
31 | O=c1cc(-c2ccccc2)oc2cc(OCCN(Cc3ccccc3)Cc3cn(CCOc4ccc5c(=O)cc(-c6ccccc6)oc5c4)nn3)ccc12 | > 100 | – | –
32 | COC(=O)c1cccc(COc2c(-c3ccc(OCCOCCn4cc(CN(Cc5ccncc5)Cc5cn(CCOCCOc6ccc(-c7oc8ccccc8c(=O)c7OCc7cccc(C(=O)OC)c7)cc6)nn5)nn4)cc3)oc3ccccc3c2=O)c1 | > 50 | – | –
33 | COC(=O)c1cccc(COc2c(-c3ccc(OCCOCCn4cc(CCCCOc5ccc6c(=O)cc(-c7ccccc7)oc6c5)nn4)cc3)oc3ccccc3c2=O)c1 | > 100 | – | –
34 | OCCOCCn1cc(CN(Cc2ccccc2)Cc2cn(CCOCCO)nn2)nn1 | > 100 | – | –
35 | Cc1ccc2oc(-c3ccc(OCCOCCOCCn4cc(CN(CCOc5ccc6c(=O)cc(-c7ccccc7)oc6c5)Cc5ccccc5)nn4)cc3)cc(=O)c2c1 | > 100 | – | –
36 | Cc1ccc2oc(-c3ccc(OCCCCc4cn(CCN(CCOc5ccc(-c6cc(=O)c7ccccc7o6)cc5)Cc5ccccc5)nn4)cc3)cc(=O)c2c1 | > 100 | – | –
37 | O=c1cc(-c2ccccc2)oc2cc(OCCCCc3cn(CCOCCOc4ccc(-c5cc(=O)c6cc(F)ccc6o5)cc4)nn3)ccc12 | > 100 | – | –
38 | COC(=O)c1cccc(COc2c(-c3ccc(OCCOCCn4cc(COCCOc5ccc6c(=O)cc(-c7ccccc7)oc6c5)nn4)cc3)oc3ccccc3c2=O)c1 | > 100 | – | –
39 | O=c1cc(-c2ccccc2)oc2cc(OCCOCCOCCn3cc(CN(Cc4ccccc4)Cc4cn(CCOCCOCCOc5ccc6c(=O)cc(-c7ccccc7)oc6c5)nn4)nn3)ccc12 | > 100 | – | –
40 | O=c1cc(-c2ccccc2)oc2cc(OCCOCCn3cc(CN(Cc4ccccc4)Cc4cn(CCOCCOc5ccc6c(=O)cc(-c7ccccc7)oc6c5)nn4)nn3)ccc12 | > 100 | – | –

Row | Compound | IC50 [1] [µM] | IC50 (NIH3T3) [µM] | IC50 (HFF-1) [µM]
41 | COC(=O)c1cccc(COc2c(-c3ccc(OCCOCCOCCn4cc(CCCOc5ccc6c(=O)cc(-c7ccccc7)oc6c5)nn4)cc3)oc3ccccc3c2=O)c1 | > 100 | – | –
42 | COC(=O)c1cccc(COc2c(-c3ccc(OCCOCCOCCn4cc(CCCCOc5ccc(-c6cc(=O)c7cc(C)ccc7o6)cc5)nn4)cc3)oc3ccccc3c2=O)c1 | > 100 | – | –
43 | COC(=O)c1cccc(COc2c(-c3ccc(OCCOCCn4cc(CCCOc5ccc(-c6cc(=O)c7ccc(F)cc7o6)cc5)nn4)cc3)oc3ccccc3c2=O)c1 | > 100 | – | –
44 | Cc1ccc2oc(-c3ccc(OCCCCc4cn(CCOCCOCCOc5ccc(-c6oc7ccccc7c(=O)c6OCc6ccccc6)cc5)nn4)cc3)cc(=O)c2c1 | > 100 | – | –
45 | COC(=O)c1cccc(COc2c(-c3ccc(OCCOCCOCCn4cc(CCCCOc5ccc6c(=O)cc(-c7ccccc7)oc6c5)nn4)cc3)oc3ccccc3c2=O)c1 | > 100 | – | –
46 | Cc1ccc2oc(-c3ccc(OCCOCCOCCn4cc(CCCOc5ccc6c(=O)cc(-c7ccccc7)oc6c5)nn4)cc3)cc(=O)c2c1 | > 50 | – | –
47 | O=c1cc(-c2ccc(OCCCc3cn(CCOCCOCCOc4ccc(-c5oc6ccccc6c(=O)c5OCc5ccccc5)cc4)nn3)cc2)oc2cc(F)ccc12 | > 100 | – | –
48 | Cc1ccc2oc(-c3ccc(OCCOCCOCCOCCOCCOc4ccc(-c5cc(=O)c6cc(C)ccc6o5)cc4)cc3)cc(=O)c2c1 | > 100 | – | –
49 | O=c1cc(-c2ccccc2)oc2cc(OCCCCc3cn(CCOCCOc4ccc5c(=O)cc(-c6ccccc6)oc5c4)nn3)ccc12 | > 100 | – | –
50 | O=c1cc(-c2ccccc2)oc2cc(OCCCCc3cn(CCOCCOCCOc4ccc(-c5oc6ccccc6c(=O)c5OCc5ccccc5)cc4)nn3)ccc12 | > 100 | – | –
51 | Cc1ccc2oc(-c3ccc(OCCOCCOCCn4cc(CCCCOc5ccc6c(=O)cc(-c7ccccc7)oc6c5)nn4)cc3)cc(=O)c2c1 | > 50 | – | –
52 | COC(=O)c1cccc(COc2c(-c3ccc(OCCOCCOCCn4cc(CN5CCN(Cc6cn(CCOCCOCCOc7ccc(-c8oc9ccccc9c(=O)c8OCc8cccc(C(=O)OC)c8)cc7)nn6)CC5)nn4)cc3)oc3ccccc3c2=O)c1 | > 100 | – | –
53 | O=c1cc(-c2ccccc2)oc2cc(OCCOCc3cn(CCOCCOCCOc4ccc(-c5cc(=O)c6cc(F)ccc6o5)cc4)nn3)ccc12 | > 50 | – | –
54 | O=c1cc(-c2ccccc2)oc2cc(OCCn3cc(CN(Cc4ccccc4)Cc4cn(CCOc5ccc6c(=O)cc(-c7ccccc7)oc6c5)nn4)nn3)ccc12 | > 100 | – | –
55 | O=c1cc(-c2ccc(OCCOCCOCCn3cc(CCCOc4ccc5c(=O)cc(-c6ccccc6)oc5c4)nn3)cc2)oc2ccccc12 | 12 | – | –
56 | O=c1c(OCc2ccccc2)c(-c2ccc(OCCOCCOCCn3cc(CN(Cc4ccccc4)Cc4cn(CCOCCOCCOc5ccc(-c6oc7ccccc7c(=O)c6OCc6ccccc6)cc5)nn4)nn3)cc2)oc2ccccc12 | > 100 | – | –
57 | COC(=O)c1cccc(COc2c(-c3ccc(OCCOCCn4cc(CCCCOc5ccc(-c6cc(=O)c7cc(C)ccc7o6)cc5)nn4)cc3)oc3ccccc3c2=O)c1 | > 100 | – | –
58 | O=c1cc(-c2ccccc2)oc2cc(OCCCc3cn(CCOCCOCCOc4ccc(-c5oc6ccccc6c(=O)c5OCc5ccccc5)cc4)nn3)ccc12 | > 100 | – | –
